Values after ≈ are worked out from the molar mass of the structure shown.
Tests used:
[1] = Solubility in lipofullerene base, confirmed by a turbidometer
Protocol: Each of the above mixtures were sonicated for 30 seconds followed by vortexing for 12 hours in the dark.

Water solubility = type: physicochemical; settings: read-out: Water solublity
AsPC-1 cells = test: Xenograft studies; type: in vivo, nude mice; settings: oral gavage, 1 mg of triptolide/1 mL of C60-olive oil base, ~28 days
Protocol: AsPC-1 cells were purchased from American Type Culture Collection (ATCC). Cells were harvested from sub-confluent cultures after brief exposure to 0.25% trypsin and 0.2% EDTA. The cells were washed once in serum-free medium and re-suspended thereafter in PBS. Only suspensions consisting of single cells with >90% viability were used for the injections. Mice were injected with 1.5×10^6 cells sub-cutaneously (S.C) on the right side of hind leg of each mouse using a 23-gauge needle. After tumor transplant, the mice were observed daily for one week, before randomly assigning them to the treatment groups (n=5). The animals thereafter received triptolide (1 mg of triptolide/1 mL of C60-olive oil base) by oral gavage starting on day 15 or on tumor volume reaching ˜40-70 mm^3. The treatment was continued until ˜28 days from first dose. […] Tumor size was measured once a week. At the end of the experimental period, the animals were euthanized.

| SMILES | Fold solubility ([1]; 12 h) | solubility (Water solubility) [µg/mL] | also measured |
| --- | --- | --- | --- |
| C#Cc1cccc(Nc2ncnc3cc(OCCOC)c(OCCOC)cc23)c1 [erlotinib] | 3 | 400 (≈ 1020 µM) | – |
| CC[C@]1(O)C[C@H]2CN(CCc3c([nH]c4ccccc34)[C@@](C(=O)OC)(c3cc4c(cc3OC)N(C=O)[C@H]3[C@@](O)(C(=O)OC)[C@H](OC(C)=O)[C@]5(CC)C=CCN6CC[C@]43[C@@H]65)C2)C1 [vincristine] | 17 | 30 (≈ 36.4 µM) | – |
| CC(C)[C@]12O[C@H]1[C@@H]1O[C@]13[C@]1(O[C@H]1C[C@H]1C4=C(CC[C@@]13C)C(=O)OC4)[C@@H]2O [triptolide] | – | – | amount of triptolide dissolved in lipofullerene base ([1]; lipofullerene base of Example 1, nitrogen gas atmosphere, stirred for 2 hours): About 2 gm/1000 mL; tumor size (AsPC-1 cells; 50 μg/kg): tumor regression was observed; tumor size (AsPC-1 cells; 100 μg/kg): tumor regression was observed; tumor size (AsPC-1 cells; 250 μg/kg): tumor regression was observed |
| CC[C@@]1(O)C(=O)OCc2c1cc1n(c2=O)Cc2cc3ccccc3nc2-1 [camptothecin] | – | 107 (≈ 307 µM) | Fold solubility ([1]; lipofullerene base compared to solubility in water): 5 |
| CC(=O)O[C@H]1C(=O)[C@@]2(C)[C@H]([C@H](OC(=O)c3ccccc3)[C@]3(O)C[C@H](OC(=O)[C@H](O)[C@@H](NC(=O)c4ccccc4)c4ccccc4)C(C)=C1C3(C)C)[C@]1(OC(C)=O)CO[C@@H]1C[C@@H]2O [paclitaxel] | 90 | 5.56 (≈ 6.51 µM) | – |
| CC(=O)O[C@@]12CO[C@@H]1C[C@H](O)[C@@]1(C)C(=O)[C@H](O)C3=C(C)[C@@H](OC(=O)[C@H](O)[C@@H](NC(=O)OC(C)(C)C)c4ccccc4)C[C@@](O)([C@@H](OC(=O)c4ccccc4)[C@H]21)C3(C)C [docetaxel] | >100 | – | – |
